Assay results as given in publication PMC7418559, “Synthesis and SAR of Tetracyclic Inhibitors of Protein Kinase CK2 Derived from Furocarbazole W16” (Chemmedchem, 2020).

How the values were obtained:
[1] = system: CK2; design: method as in PMID 29759799; conditions: cited from earlier work
[2] = target: T1, CK2α subunit (Homo sapiens, UniProt P68400); assay: Capillary electrophoresis (CE) assay, enzyme inhibition of the CK2α subunit; format: biochemical; conditions: for Inhibition (%) of CK2α: c=10 μM, CE assay, mean±SD of three experiments, n.s.=not significant
T1 construct: made in house; host or cells: E. coli BL21(DE3)
T1 sequence (P68400 whole entry): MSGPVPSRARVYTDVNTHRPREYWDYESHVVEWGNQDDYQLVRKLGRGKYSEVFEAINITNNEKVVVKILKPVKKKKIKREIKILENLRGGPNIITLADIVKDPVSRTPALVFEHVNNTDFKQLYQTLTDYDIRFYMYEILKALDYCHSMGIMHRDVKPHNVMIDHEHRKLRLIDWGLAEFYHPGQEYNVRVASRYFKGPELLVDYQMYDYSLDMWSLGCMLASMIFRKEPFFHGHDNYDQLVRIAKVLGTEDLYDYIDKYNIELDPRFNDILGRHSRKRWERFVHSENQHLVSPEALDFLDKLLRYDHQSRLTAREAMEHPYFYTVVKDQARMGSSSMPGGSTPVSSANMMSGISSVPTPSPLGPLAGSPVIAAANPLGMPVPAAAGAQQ
Text: (§1) In this assay, the decapeptide […], a known class I substrate suitable for assaying the kinase activity of both the CK2 holoenzyme and the catalytically active CK2 subunits,50, 58 was reacted with ATP in the presence of enzyme, which transfers a phosphate group to Ser7 of the decapeptide. Due to the additional negative charge of the phosphate group, the decapeptide and the phosphorylated decapeptide can be separated by CE. […] The data on the inhibition of the kinase activities of CK2α2β2, CK2α subunit and mutated CK2α’ ^C336S subunit are summarized in Table 1.
(§2) Enzymatic activities with or without inhibitors were determined for the holoenzyme (CK2α2β2), the CK2α subunit, and the mutated CK2α′ ^C336S subunit by a capillary electrophoresis assay as described before.59 For this purpose, CK2α as well as (CK2α2β2) holoenzyme were purified after recombinant expression in E. coli BL21(DE3) and purified according the protocol of Grankowski et al.62 The mutated CK2α′ ^C336S subunit was purified by Ni‐NTA affinity chromatography using an N‐terminally attached His6 tag. Successful purification was controlled by SDS‐PAGE. Enzymatic activity was determined in the presence of 60 μM ATP and 114 μM of the substrate peptide […]. For both CK2α subunits an assay buffer containing 100 mM NaCl instead of 60 mM NaCl as for the holoenzyme, and 20 mM MgCl2 instead of 10 mM MgCl2 was applied. For the holoenzyme, 1 μg was added, whereas for CK2α and the mutated CK2α′ ^C336S subunit 0.25 μg was added each. For each compound inhibition was determined three times independently at an initial concentration of 10 μM and the mean value and the standard deviation (SD) were calculated.

[3] = target: T2, mutated CK2α’ ^C336S subunit (Homo sapiens, UniProt P19784, C336S); assay: Capillary electrophoresis (CE) assay, enzyme inhibition of the mutated CK2α′ C336S subunit; format: biochemical; conditions: c=10 μM, CE assay, mean±SD of three experiments, n.s.=not significant
T2 construct: His6 (N); made in house
T2 sequence (P19784 1-350 C336S): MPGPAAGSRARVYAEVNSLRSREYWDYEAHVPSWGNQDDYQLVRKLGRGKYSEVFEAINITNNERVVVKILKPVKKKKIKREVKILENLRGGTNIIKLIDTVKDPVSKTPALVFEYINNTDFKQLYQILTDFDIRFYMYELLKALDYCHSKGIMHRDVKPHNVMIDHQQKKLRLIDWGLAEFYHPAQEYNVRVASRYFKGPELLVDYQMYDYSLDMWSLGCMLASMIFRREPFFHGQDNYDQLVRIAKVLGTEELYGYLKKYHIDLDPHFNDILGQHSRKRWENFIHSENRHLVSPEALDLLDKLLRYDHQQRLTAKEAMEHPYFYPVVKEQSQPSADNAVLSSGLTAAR
Text: as §1, §2

[4] = target: T3, CK2α/CK2β interaction (CK2α^1−335 / fluorescently labeled CK2β^1−193) (Homo sapiens, UniProt P68400)
T3 sequence (P68400 1-335): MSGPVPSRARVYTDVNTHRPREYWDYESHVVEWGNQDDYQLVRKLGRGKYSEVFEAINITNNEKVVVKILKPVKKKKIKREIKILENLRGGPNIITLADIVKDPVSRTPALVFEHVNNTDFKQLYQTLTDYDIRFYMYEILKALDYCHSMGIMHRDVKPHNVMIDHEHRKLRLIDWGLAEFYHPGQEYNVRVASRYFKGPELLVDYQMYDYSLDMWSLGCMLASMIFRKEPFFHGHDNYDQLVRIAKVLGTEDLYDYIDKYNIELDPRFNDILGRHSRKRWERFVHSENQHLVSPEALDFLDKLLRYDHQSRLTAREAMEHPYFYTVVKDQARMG

[5] = target: T4, holoenzyme CK2α2β2 (Homo sapiens, UniProt P68400); assay: Capillary electrophoresis (CE) assay, enzyme inhibition of the holoenzyme; format: biochemical; conditions: for Inhibition (%) of CK2α2β2: c=10 μM, CE assay, mean±SD of three experiments, n.s.=not significant
T4 construct: made in house; host or cells: E. coli BL21(DE3)
T4 sequence (P68400 whole entry): as the sequence (P68400 whole entry) above
Protocol: In this assay, the decapeptide […], a known class I substrate suitable for assaying the kinase activity of both the CK2 holoenzyme and the catalytically active CK2 subunits,50, 58 was reacted with ATP in the presence of enzyme, which transfers a phosphate group to Ser7 of the decapeptide. Due to the additional negative charge of the phosphate group, the decapeptide and the phosphorylated decapeptide can be separated by CE.
Enzymatic activities with or without inhibitors were determined for the holoenzyme (CK2α2β2), the CK2α subunit, and the mutated CK2α′ ^C336S subunit by a capillary electrophoresis assay as described before.59 For this purpose, CK2α as well as (CK2α2β2) holoenzyme were purified after recombinant expression in E. coli BL21(DE3) and purified according the protocol of Grankowski et al.62 The mutated CK2α′ ^C336S subunit was purified by Ni‐NTA affinity chromatography using an N‐terminally attached His6 tag. […] For both CK2α subunits an assay buffer containing 100 mM NaCl instead of 60 mM NaCl as for the holoenzyme, and 20 mM MgCl2 instead of 10 mM MgCl2 was applied. For the holoenzyme, 1 μg was added, whereas for CK2α and the mutated CK2α′ ^C336S subunit 0.25 μg was added each. For each compound inhibition was determined three times independently at an initial concentration of 10 μM and the mean value and the standard deviation (SD) were calculated.

[6] = system: monomeric CK2α; design: method as in PMID 18553057; conditions: read-out: IC50, inhibition of the catalytic activity of monomeric CK2α; cited from earlier work
[7] = system: CK2α/CK2β interaction; design: method as in PMID 18553057; conditions: read-out: IC50, inhibition of CK2α/CK2β interaction (PPII); cited from earlier work

SMILES	Inhibition of CK2 activity [1]	Inhibition (%) of CK2α [2]	Inhibition (%) of CK2α’ ^C336S [3]	Ki [4] [µM]	Inhibition (%) of CK2α2β2 [5]	IC50 [6] [µM]	inhibition at 10 µM ([2]; read-out: Inhibition (%) of CK2α) [%]	inhibition at 10 µM ([3]; read-out: Inhibition (%) of CK2α’ ^C336S) [%]	IC50 [7] [µM]	inhibition at 10 µM ([5]; read-out: Inhibition (%) of CK2α2β2) [%]
NCc1cc(Cl)cc(-c2cccc3[nH]ccc23)c1 [CAM187]	did not significantly inhibit CK2 activity									
COc1cc([C@@H]2c3c([nH]c4ccccc34)[C@H](C(=O)N3C(=O)OC[C@@H]3Cc3ccccc3)[C@@H]3C(=O)NC(=O)[C@H]23)cc(OC)c1OC [(−)‐9 b]		n.s.	n.s.	4.4 ± 0.3	n.s.					
COc1cc([C@H]2c3c([nH]c4ccccc34)[C@@H](C(=O)N3C(=O)OC[C@@H]3Cc3ccccc3)[C@H]3C(=O)OC(=O)[C@@H]23)cc(OC)c1OC [(+)‐3 a, (3aR,4S,10S,10aS)‐4‐{[(S)‐4‐Benzyl‐2‐oxo‐1,3‐oxazolidin‐3‐yl]carbonyl}‐10‐(3,4,5‐trimethoxyphenyl)‐4,5,10,10a‐tetrahydrofuro[3,4‐b]carbazole‐1,3(3aH)‐dione]						20	[…]	85 ± 13	[…]	84 ± 5
CCOC(=O)C1c2[nH]c3ccccc3c2C(c2cc(OC)c(OC)c(OC)c2)C2C(=O)NC(=O)C12 (racemic) [(±)‐11]		n.s.	n.s.	32 ± 17	n.s.					
